Read-outs that look alike come from different tables or passages of the source.
Key:
Assay in all cases: Kinase selectivity, P33-radiolabeled assay
Type in all cases: biochemical
[1] = target: T1, ERK1 (Homo sapiens, UniProt P27361); settings: 10 μM ATP
T1 construct: purchased Reaction Biology Corp
Summary of the method: (§1)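 Activity relative to DMSO controls (%) was measured for compound at 10 μM. Assays ran at 10 μM ATP, in duplicate.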

[2] = target: T2, MEK2 (Homo sapiens, UniProt P36507)
T2 construct: purchased Reaction Biology Corp
T2 sequence (P36507 whole entry): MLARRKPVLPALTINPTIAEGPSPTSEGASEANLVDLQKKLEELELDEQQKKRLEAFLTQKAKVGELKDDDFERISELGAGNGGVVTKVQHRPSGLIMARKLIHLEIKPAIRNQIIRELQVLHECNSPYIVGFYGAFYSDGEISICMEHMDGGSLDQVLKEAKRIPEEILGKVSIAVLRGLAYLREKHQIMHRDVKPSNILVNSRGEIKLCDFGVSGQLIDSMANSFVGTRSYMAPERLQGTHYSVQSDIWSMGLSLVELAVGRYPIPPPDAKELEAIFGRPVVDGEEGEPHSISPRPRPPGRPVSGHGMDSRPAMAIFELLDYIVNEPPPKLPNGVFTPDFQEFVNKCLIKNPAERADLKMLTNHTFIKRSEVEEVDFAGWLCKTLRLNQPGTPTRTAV
Summary of the method: as §1

[3] = target: T3, PKG1a (Homo sapiens, UniProt Q13976); settings: 10 μM ATP
T3 construct: purchased Reaction Biology Corp
T3 sequence (Q13976 1-671): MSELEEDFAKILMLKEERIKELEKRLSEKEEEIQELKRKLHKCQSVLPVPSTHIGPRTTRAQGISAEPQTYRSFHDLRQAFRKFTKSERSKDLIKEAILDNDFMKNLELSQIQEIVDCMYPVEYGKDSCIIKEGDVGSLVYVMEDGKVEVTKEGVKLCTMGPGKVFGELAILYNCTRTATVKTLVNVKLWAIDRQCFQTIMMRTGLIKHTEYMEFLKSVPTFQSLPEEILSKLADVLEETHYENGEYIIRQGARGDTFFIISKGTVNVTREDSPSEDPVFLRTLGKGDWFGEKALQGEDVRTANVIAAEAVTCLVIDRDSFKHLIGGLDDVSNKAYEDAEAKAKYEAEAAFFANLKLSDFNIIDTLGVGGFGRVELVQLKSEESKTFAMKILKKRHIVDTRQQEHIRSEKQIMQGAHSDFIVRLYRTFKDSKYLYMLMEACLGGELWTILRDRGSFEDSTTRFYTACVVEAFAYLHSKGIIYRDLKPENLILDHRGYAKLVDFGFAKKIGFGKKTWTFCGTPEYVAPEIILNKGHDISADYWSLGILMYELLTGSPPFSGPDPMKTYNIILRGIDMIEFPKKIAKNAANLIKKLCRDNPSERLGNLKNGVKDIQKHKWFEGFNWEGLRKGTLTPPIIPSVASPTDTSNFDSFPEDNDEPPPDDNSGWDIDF
Summary of the method: as §1

[4] = target: T4, DYRK3 (Homo sapiens, UniProt O43781); settings: 10 μM ATP
T4 construct: purchased Reaction Biology Corp
T4 sequence (O43781 1-588): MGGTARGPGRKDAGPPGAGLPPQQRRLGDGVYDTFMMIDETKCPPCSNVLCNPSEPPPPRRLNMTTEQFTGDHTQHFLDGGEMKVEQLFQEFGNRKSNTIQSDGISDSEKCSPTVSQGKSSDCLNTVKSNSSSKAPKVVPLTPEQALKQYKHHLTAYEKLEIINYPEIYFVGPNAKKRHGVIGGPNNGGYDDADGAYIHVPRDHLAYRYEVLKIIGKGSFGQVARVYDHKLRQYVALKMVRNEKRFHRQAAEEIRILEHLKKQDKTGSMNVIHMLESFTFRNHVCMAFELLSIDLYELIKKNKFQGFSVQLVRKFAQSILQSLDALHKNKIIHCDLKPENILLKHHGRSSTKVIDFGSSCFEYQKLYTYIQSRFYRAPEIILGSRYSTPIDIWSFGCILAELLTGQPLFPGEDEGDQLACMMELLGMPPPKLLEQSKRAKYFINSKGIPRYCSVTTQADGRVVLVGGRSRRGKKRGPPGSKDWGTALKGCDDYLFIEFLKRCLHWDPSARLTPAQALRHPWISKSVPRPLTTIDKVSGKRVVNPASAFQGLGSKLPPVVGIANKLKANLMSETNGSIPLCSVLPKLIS
Summary of the method: as §1

[5] = target: T5, p70S6K/RPS6KB1 (Homo sapiens, UniProt P23443); settings: 10 μM ATP
T5 construct: purchased Reaction Biology Corp
T5 sequence (P23443 whole entry): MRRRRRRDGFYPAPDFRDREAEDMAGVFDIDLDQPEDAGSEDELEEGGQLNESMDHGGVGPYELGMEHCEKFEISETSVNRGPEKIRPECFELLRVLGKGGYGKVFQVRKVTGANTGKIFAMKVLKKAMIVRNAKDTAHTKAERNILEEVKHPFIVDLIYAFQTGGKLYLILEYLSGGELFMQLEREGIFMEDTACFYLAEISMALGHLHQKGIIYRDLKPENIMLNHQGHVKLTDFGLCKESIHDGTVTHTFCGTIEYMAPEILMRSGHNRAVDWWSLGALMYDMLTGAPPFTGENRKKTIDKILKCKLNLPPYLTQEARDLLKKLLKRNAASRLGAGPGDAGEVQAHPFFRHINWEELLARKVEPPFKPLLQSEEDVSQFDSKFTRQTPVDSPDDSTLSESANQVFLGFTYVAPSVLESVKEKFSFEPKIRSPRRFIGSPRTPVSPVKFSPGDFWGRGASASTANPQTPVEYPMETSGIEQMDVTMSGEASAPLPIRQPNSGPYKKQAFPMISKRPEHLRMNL
Summary of the method: as §1

[6] = target: T6, WNK2 (Homo sapiens, UniProt Q9Y3S1); settings: 10 μM ATP
T6 construct: purchased Reaction Biology Corp
Summary of the method: as §1

[7] = target: T7, TNIK (Homo sapiens, UniProt Q9UKE5); settings: 10 μM ATP
T7 construct: purchased Reaction Biology Corp
T7 sequence (Q9UKE5 whole entry): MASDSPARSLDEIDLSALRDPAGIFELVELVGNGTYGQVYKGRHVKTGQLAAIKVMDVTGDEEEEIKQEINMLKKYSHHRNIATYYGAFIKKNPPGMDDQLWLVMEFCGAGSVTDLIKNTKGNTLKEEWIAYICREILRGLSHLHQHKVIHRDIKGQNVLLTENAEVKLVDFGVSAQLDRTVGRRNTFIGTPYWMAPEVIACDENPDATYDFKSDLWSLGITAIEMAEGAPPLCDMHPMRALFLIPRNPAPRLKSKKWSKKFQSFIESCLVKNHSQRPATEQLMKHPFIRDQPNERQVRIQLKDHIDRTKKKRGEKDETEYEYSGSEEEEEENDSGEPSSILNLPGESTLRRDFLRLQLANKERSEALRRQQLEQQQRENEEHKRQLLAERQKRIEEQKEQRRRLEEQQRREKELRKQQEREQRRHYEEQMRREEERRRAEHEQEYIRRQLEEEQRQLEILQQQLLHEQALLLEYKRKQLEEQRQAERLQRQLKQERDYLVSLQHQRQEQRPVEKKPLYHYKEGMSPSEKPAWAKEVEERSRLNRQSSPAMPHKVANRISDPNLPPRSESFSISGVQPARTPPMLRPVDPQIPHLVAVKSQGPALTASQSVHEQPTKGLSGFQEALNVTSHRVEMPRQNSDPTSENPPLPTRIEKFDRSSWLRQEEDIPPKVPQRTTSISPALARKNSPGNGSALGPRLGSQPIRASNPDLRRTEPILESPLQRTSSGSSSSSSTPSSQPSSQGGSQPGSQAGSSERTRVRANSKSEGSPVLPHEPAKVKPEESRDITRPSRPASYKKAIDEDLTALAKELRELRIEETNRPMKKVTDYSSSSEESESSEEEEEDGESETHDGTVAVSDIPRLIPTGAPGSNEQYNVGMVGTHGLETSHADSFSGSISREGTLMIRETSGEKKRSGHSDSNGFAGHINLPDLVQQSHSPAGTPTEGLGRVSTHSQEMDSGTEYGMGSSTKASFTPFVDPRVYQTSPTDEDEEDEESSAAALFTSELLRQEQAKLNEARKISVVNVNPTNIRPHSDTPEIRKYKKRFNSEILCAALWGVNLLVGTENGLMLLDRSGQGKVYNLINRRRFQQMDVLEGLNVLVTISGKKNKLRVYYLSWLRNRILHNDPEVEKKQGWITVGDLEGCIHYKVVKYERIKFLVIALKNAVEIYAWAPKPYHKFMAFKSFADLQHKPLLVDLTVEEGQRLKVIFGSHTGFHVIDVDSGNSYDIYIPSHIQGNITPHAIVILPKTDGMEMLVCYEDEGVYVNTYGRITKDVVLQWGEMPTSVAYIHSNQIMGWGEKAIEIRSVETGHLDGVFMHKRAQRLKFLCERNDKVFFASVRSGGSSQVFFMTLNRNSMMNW
Summary of the method: as §1

[8] = target: T8, CHK1 (Homo sapiens, UniProt O14757); settings: 10 μM ATP
T8 construct: purchased Reaction Biology Corp
T8 sequence (O14757 1-476): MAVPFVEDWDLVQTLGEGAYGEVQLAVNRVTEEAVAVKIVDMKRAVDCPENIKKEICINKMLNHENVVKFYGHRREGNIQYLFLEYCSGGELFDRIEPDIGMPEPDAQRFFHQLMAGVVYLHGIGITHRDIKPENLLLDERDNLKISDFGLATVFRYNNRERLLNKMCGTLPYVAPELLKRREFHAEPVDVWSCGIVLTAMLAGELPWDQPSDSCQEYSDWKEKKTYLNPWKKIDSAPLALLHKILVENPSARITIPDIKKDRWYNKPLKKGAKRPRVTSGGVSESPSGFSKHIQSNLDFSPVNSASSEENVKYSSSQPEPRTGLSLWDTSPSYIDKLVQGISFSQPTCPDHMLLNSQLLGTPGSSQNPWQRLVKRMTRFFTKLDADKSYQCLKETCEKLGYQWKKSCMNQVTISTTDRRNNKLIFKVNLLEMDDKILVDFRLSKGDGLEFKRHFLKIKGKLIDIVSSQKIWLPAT
Summary of the method: as §1

[9] = target: T9, CK1g3 (Homo sapiens, UniProt Q9Y6M4); settings: 10 μM ATP
T9 construct: purchased Reaction Biology Corp
T9 sequence (Q9Y6M4 whole entry): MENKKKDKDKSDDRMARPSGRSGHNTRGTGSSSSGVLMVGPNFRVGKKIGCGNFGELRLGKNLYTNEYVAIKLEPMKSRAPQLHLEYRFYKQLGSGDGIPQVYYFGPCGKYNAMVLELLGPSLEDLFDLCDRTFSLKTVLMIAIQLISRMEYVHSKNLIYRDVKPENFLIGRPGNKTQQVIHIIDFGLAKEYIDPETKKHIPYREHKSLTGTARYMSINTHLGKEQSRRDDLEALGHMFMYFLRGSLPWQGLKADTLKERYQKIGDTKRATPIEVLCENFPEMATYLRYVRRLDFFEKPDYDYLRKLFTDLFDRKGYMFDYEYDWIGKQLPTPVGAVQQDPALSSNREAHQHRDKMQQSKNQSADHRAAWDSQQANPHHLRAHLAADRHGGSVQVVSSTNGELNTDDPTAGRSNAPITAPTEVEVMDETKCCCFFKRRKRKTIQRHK
Summary of the method: as §1

[10] = read-out: % Enzyme Activity (relative to DMSO controls) AVG
[11] = read-out: % Enzyme Activity (relative to DMSO controls) Data 1
[12] = read-out: % Enzyme Activity (relative to DMSO controls) Data 2

T1 sequence (P27361 whole entry): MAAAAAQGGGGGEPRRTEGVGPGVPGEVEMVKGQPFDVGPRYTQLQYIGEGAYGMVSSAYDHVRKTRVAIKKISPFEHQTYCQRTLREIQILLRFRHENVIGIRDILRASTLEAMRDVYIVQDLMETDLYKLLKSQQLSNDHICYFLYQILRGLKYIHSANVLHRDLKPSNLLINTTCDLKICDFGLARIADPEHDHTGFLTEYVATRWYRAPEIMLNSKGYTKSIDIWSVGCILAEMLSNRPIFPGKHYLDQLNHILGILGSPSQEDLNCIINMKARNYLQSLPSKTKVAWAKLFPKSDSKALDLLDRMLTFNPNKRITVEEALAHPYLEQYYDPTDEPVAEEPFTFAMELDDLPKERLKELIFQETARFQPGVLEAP

Molecule CC(C)(C)C(=O)N1N=CC[C@H]1c1ccccc1 [GSK′963] has a remaining activity at 10 µM [1, 10] of 102%, a remaining activity at 10 µM [1, 11] of 98.8% and a remaining activity at 10 µM [1, 12] of 104%. The remaining activity at 10 µM ([2]; 10 uM, 10 μM ATP, read-out: % Enzyme Activity (relative to DMSO controls) AVG) was 102%, the remaining activity at 10 µM ([2]; 10 uM, 10 μM ATP, read-out: % Enzyme Activity (relative to DMSO controls) Data 2) was 103% and the remaining activity at 10 µM [2, 11] was 101%. For the same molecule, the remaining activity at 10 µM [3, 10] was 90%, the remaining activity at 10 µM [3, 11] was 92.4% and the remaining activity at 10 µM [3, 12] was 87.7%. The remaining activity at 10 µM [4, 10] was 115%, the remaining activity at 10 µM [4, 11] was 113% and the remaining activity at 10 µM [4, 12] was 116%. It also gave a remaining activity at 10 µM [5, 10] of 99.1%, a remaining activity at 10 µM [5, 11] of 97.4% and a remaining activity at 10 µM [5, 12] of 101%. It also gave a remaining activity at 10 µM [6, 10] of 97.4%, a remaining activity at 10 µM [6, 11] of 99.3% and a remaining activity at 10 µM [6, 12] of 95.5%. It also gave a remaining activity at 10 µM [7, 10] of 106%, a remaining activity at 10 µM [7, 11] of 108% and a remaining activity at 10 µM [7, 12] of 104%. The remaining activity at 10 µM [8, 10] was 115%, the remaining activity at 10 µM [8, 11] was 122% and the remaining activity at 10 µM [8, 12] was 109%. The remaining activity at 10 µM [9, 10] was 98.4%, the remaining activity at 10 µM [9, 11] was 97.8% and the remaining activity at 10 µM [9, 12] was 99%.
